Results as given in patent EP2623117A1, “Immunogenic nanomedicine composition and preparation and uses thereof” (Genetic Immunity Kft., priority 2009, dated 2010).

Legend:
293T human cells = experiment: In vitro biological activity assay: transfection of 293T cells, HIV-1 p24 antigen ELISA of supernatant; type: cell-based; conditions: N/P ratio of 3
Experimental: The in vitro biological activity test of the NanoComp is performed by transfection of 293T human cells. 50,000 cells are plated in 96 well plate 19 hours before transfection, using DMEM culture medium (DMEM, 1% FBS, 1% L-glutamine, 1% Penicillin-Streptomycin). 0.5µg pDNA/NanoComp is added to each well followed by 21 hours incubation at 37°C in 5% CO2 air condition. During the incubation period, the HIV-specific protein antigens encoded by the pDNA are expressed and secreted into the culture medium. After 21 hours, the supernatant of the cells are collected, and HIV-1 p24 antigen ELISA is performed to quantify p24 protein produced by the pDNA.

[1] = Side reaction of formulation solvent with PEIm (UV spectra after storage); type: physicochemical; conditions: room temperature, 2 month
Experimental: • a) NanoComp formulations were prepared according to Example 1, using the same PEIm and pDNA at N/P ratio of 3, and different solvents: sterile water, physiological NaCl (0.9%), D(+)-Mannitol (10 mg/ml), Sorbitol (10 mg/ml), D(+)-Glucose (10 mg/ml), Mannose (10 mg/ml), Sucrose (10 mg/ml), Triethanolamine buffer (TEA) (pH 7.5), D(+)-Mannitol (10 mg/ml) in triethanolamine (TEA) buffer (pH 7.5), Sorbitol (10 mg/ml) in triethanolamine buffer (pH 7.5) and D(+)-Mannitol (10 mg/ml) and Glycerol (10 mg/ml) in triethanolamine buffer (pH 7.5). The biological activity is given procentual related to the biological activity of the formulation in sterile water. Results are shown in Fig. 7A. • b) PEIm solution, mixture of PEIm with Glucose (10%) and Mannitol (10%) respectively, NanoComp formulations with Glucose (10%) and Mannitol (10%) were prepared according to Example 1, the missing component in all mixtures were replaced with water, to ensure the same concentration of the components. The prepared solutions were stored at room temperature (approx. 25°C) for 2 month. UV spectra were recorded without dilution. […] The particle size of the formed complexes was measured using ZetaPALS, Brookehaven instrument freshly and after 6 days storage at room temperature.

Which results are given for `OC[C@@H](O)[C@@H](O)[C@H](O)[C@H](O)CO` [mannitol, D(+)-Mannitol]?
effect of solvent on the biological activity of the NanoComp compared to sterile water (293T human cells): same improving effect on the biological activity; side reaction of solvent with PEIm over time [1]: without side reactions with PEIm
